Patent EP2799074A1, “Iron bis-glycinate chelate for use in the oral treatment of anemia in patients with celiac disease” (Laboratori Baldacci S.P.A., priority 2009, dated 2011)
Several values for one entry are separate records, joined by “and”; a condition that tells them apart may be missing. Equal values may be shown once. Read-outs that look alike come from different tables or passages of the source.

Legend:
[1] = test system: celiac subjects, with sideropenic anemia; assay: Efficiency comparison between oral iron bis-glycinate chelate (effervescent tablet of example 1) and conventional treatment in celiac patients; haemochromocytometric test; type: in vivo, human; conditions: for Hb values / Serum iron values / Values of Ferritin: one patient per line; for Serum iron values / Values of Ferritin: after initial therapy (Fe sulphate p.o. and/or sodium ferric gluconate i.v.)
Text: 12 celiac subjects, with sideropenic anemia diagnosed according to the hemoglobin (Hb), ferritin and iron (serum iron) values obtained from the haemochromocytometric test were included in this experiment.
Celiac disease was diagnosed according to the clinical manifestations and histology reports regarding the intestinal mucosa.
These patients were then subjected to a therapy using the iron bis-glycinate chelate according to the invention, formulated in the effervescent tablet of example 1.
The hemoglobin (Hb), (Table 1), ferritin (Table 2) and serum iron (Table 3) values taken from each treated patient, both after the conventional therapy (oral and/or intravenous) and after the oral administration according to the present invention (effervescent tablet) were considered for the evaluation.
A therapy cycle corresponds to the treatment for 20 days with two effervescent tablets per day containing about 14 mg of iron ion per tablet and then, an effervescent tablet per day containing 14 mg of iron ion, for further 40 days.
The subsequent maintenance corresponds to the treatment for 20 days with two effervescent tablets per day containing about 14 mg of iron ion per tablet, every 3 months for about one year.
The hemoglobin, ferritin and serum iron blood values were determined after the first treatment cycle and the treatment was continued with repeated cycles according to the previously indicated methods.

[2] = cited from earlier work
[3] = with respect to mineral salts, such as ferrous sulphate; literature data; cited from earlier work
celiac patients [4] = assay: Clinical records of celiac patients treated with conventional iron salts p.o. and i.v. (Examples 6-11)
Method: (§1) All patients were initially treated with ferrous sulphate orally (1 tablet of ferrous sulphate, corresponding to 105 mg of iron ion) for 40 days and/or with sodium ferric gluconate by intravenous administration for a variable period of time according to the seriousness of the anemic status.
(§2) All patients were diagnosed with celiac disease through bioptic sampling and with serological tests. During the conventional therapy, the diet of said patients was controlled and corrected with gluten-free foods.

celiac patients [5] = conditions: human, in vivo
Method: as §1, §2

[6] = Patient I, ferrous sulphate oral, Final values, 40 days
[7] = Patient I, ferrous sulphate oral, Initial values, 40 days
[8] = Patient II, ferrous sulphate oral, Final values, 8/10 days
[9] = Patient II, ferrous sulphate oral, Initial values, 8/10 days
[10] = Patient III, ferrous sulphate oral, Final values, 40 days
[11] = Patient III, ferrous sulphate oral, Initial values, 40 days
[12] = Patient V, ferrous sulphate oral, Final values, 40 days
[13] = Patient V, ferrous sulphate oral, Initial values, 40 days
[14] = Patient I, iron polymaltosate oral, Final values, 20 days
[15] = Patient I, iron polymaltosate oral, Initial values, 20 days
[16] = Patient I, ferric iron i.v., Final values, 20 days
[17] = Patient I, ferric iron i.v., Initial values, 20 days
[18] = Patient II, ferric iron i.v., Final values, few days
[19] = Patient II, ferric iron i.v., Initial values, few days
[20] = Patient IV, ferric iron i.v., Final values, 20 days
[21] = Patient IV, ferric iron i.v., Initial values, 20 days
[22] = Patient VI, iron i.v., Final values, 20 days
[23] = Patient VI, iron i.v., Initial values, 20 days

Molecule: NCC(=O)[O-].NCC(=O)[O-].[Fe+2] [Iron bis-glycinate chelate, iron bis-glycinate chelate]
- hemoglobin, ferritin and serum iron value ([1]; after I therapy cycle, celiac patients): considerably increases
- Hb values ([1]; after efferv. tab therapy 1st cycle: two effervescent tablets per day for 20 days, then one per day for 40 days): 12.5 g/100 ml and 12.0 g/100 ml (2×) and 13.1 g/100 ml and 11.7 g/100 ml and 11.8 g/100 ml and 12.8 g/100 ml and 12.3 g/100 ml and 12.7 g/100 ml and 11.9 g/100 ml and 12.1 g/100 ml and 10.0 g/100 ml
- Hb values ([1]; after maintenance efferv. tab.: two tablets per day for 20 days every 3 months for about one year): 13.6 g/100 ml and 12.9 g/100 ml (2×) and 14.3 g/100 ml and 13.4 g/100 ml (2×) and 13.2 g/100 ml and 12.3 g/100 ml and 14.0 g/100 ml and 13.1 g/100 ml and 12.7 g/100 ml and 12.1 g/100 ml
- adverse effects ([1]; oral treatment of 12 celiac patients with the effervescent tablet of example 1): did not reveal any adverse effects worth mentioning
- hydrolysis ([2]; different pH values of the gastrointestinal section): does not undergo hydrolysis
- separation into iron ion ([2]; pH interval comprised between 3 and 10): not separated into iron ion
- bioavailability [3]: greater bioavailability

Molecule: O=S(=O)([O-])[O-].[Fe+2] [ferrous sulphate]
- Serum iron values [1]: 34 µg/dL and 16 µg/dL
- Values of Ferritin [1]: 23 ng/mL and <5 ng/mL
- tolerability / adverse events of the treatment (celiac patients [4]; Patient I - Female): intestinal intolerance
- Ferritin (celiac patients [4]; [6]): 38
- Serum iron (celiac patients [4]; [6]): 48
- Hb (celiac patients [4]; Patient I, ferrous sulphate oral, Final values, duration 40 days): 11.1
- Ferritin (celiac patients [4]; [7]): 32
- Serum iron (celiac patients [4]; [7]): 41
- Hb (celiac patients [4]; Patient I, ferrous sulphate oral, Initial values, duration 40 days): 10.2
- Ferritin (celiac patients [4]; [8]): 45
- Hb (celiac patients [4]; [8]): 12.3
- Serum iron (celiac patients [4]; [8]): 68
- Ferritin (celiac patients [4]; [9]): 41
- Hb (celiac patients [4]; [9]): 11.6
- Serum iron (celiac patients [4]; [9]): 55
- Ferritin (celiac patients [4]; [10]): 27
- Hb (celiac patients [4]; [10]): 10
- Serum iron (celiac patients [4]; [10]): 38
- Ferritin (celiac patients [4]; [11]): 19
- Hb (celiac patients [4]; [11]): 9.1
- Serum iron (celiac patients [4]; [11]): 32
- Hb (celiac patients [4]; Patient V, ferrous sulphate oral, after several therapy cycles, Initial values, 40 days): 8.4
- Ferritin (celiac patients [4]; [12]): 21
- Hb (celiac patients [4]; [12]): 9.7
- Serum iron (celiac patients [4]; [12]): 46
- Ferritin (celiac patients [4]; [13]): <5
- Serum iron (celiac patients [4]; [13]): 22

Molecule: iron polymaltosate
- tolerability / adverse events of the treatment (celiac patients [5]): well tolerated
- Ferritin (celiac patients [4]; [14]): 25
- Hb (celiac patients [4]; [14]): 10.8
- Serum iron (celiac patients [4]; [14]): 43
- Ferritin (celiac patients [4]; [15]): 29
- Hb (celiac patients [4]; [15]): 10.6
- Serum iron (celiac patients [4]; [15]): 38

Molecule: sodium ferric gluconate
- Serum iron values [1]: 30 µg/dL
- Values of Ferritin [1]: 22 ng/mL
- tolerability / adverse events of the treatment (celiac patients [5]; iv): skin rush and asthmatic crisis
- Ferritin (celiac patients [4]; [16]): 30
- Hb (celiac patients [4]; [16]): 9.8
- Serum iron (celiac patients [4]; [16]): 48
- Ferritin (celiac patients [4]; [17]): <5
- Serum iron (celiac patients [4]; [17]): 19
- Hb (celiac patients [4]; Patient I, ferric iron i.v., Initial values, 20 days, 1 vial/day for 10 days, then 2 vials/day): 7.7
- Ferritin (celiac patients [4]; [18]): 33
- Serum iron (celiac patients [4]; [18]): 49
- Hb (celiac patients [4]; Patient II, ferric iron i.v., Final values, few days, cycle not completed): 10.8
- Ferritin (celiac patients [4]; [19]): 31
- Serum iron (celiac patients [4]; [19]): 40
- Hb (celiac patients [4]; Patient II, ferric iron i.v., Initial values, few days, cycle not completed): 10.4
- Ferritin (celiac patients [4]; [20]): 42
- Hb (celiac patients [4]; [20]): 10.6
- Serum iron (celiac patients [4]; [20]): 54
- Ferritin (celiac patients [4]; [21]): 21
- Serum iron (celiac patients [4]; [21]): 39
- Hb (celiac patients [4]; Patient IV, ferric iron i.v., Initial values, 20 days, 1 vial/day for 10 days, then 2 vials/day): 9.7
- values of Hb (celiac patients [4]; Patient IV, iron i.v., cycles every 3/4 months): around 11 gr/dl
- Ferritin (celiac patients [4]; [22]): 81
- Hb (celiac patients [4]; [22]): 12.6
- Serum iron (celiac patients [4]; [22]): 68
- Ferritin (celiac patients [4]; [23]): 35
- Hb (celiac patients [4]; [23]): 10.2
- Serum iron (celiac patients [4]; [23]): 41
